Earlier results, collected in patent US10912741B2, “Prevention of liver cancer with safranal-based formulations” (United Arab Emirates University, priority 2019, dated 2021).

System: HeLa cells
Conditions: reported in the background; cited from earlier work

SMILES | growth of HeLa cells
CC1=C(C=O)C(C)(C)C[C@H](O[C@@H]2O[C@H](CO)[C@@H](O)[C@H](O)[C@H]2O)C1 [picrocrocin] | inhibit the growth of HeLa cells
CC(/C=C/C=C(\C)C(=O)O[C@@H]1O[C@H](CO[C@@H]2O[C@H](CO)[C@@H](O)[C@H](O)[C@H]2O)[C@@H](O)[C@H](O)[C@H]1O)=C\C=C\C=C(C)\C=C\C=C(/C)C(=O)O[C@@H]1O[C@H](CO[C@@H]2O[C@H](CO)[C@@H](O)[C@H](O)[C@H]2O)[C@@H](O)[C@H](O)[C@H]1O [crocin] | inhibit the growth of HeLa cells
